Measured values from PubChem BioAssay (NCI).
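Five compound concentrations were applied to cells in 96-well plates for 48 hours; endpoints were derived by simple linear interpolation of the resulting dose-response curve. Abbreviation: GI50, concentration required for 50% inhibition of growth. Definition used: TGI = concentration required for complete inhibition of growth.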

Tests used:
Test in all cases: DTP human tumour cell line panel, 48 h
[1] = test system: RXF 393 renal
[2] = test system: SF-268 CNS
[3] = test system: HCC-2998 colon
[4] = test system: 786-0 renal
[5] = test system: CCRF-CEM leukemia
[6] = test system: EKVX NSCLC
[7] = test system: HCT-116 colon
[8] = test system: UACC-62 melanoma
[9] = test system: MDA-MB-231 breast
[10] = test system: M14 melanoma
[11] = test system: MDA-MB-435
[12] = test system: SK-MEL-2 melanoma
[13] = test system: OVCAR-3 ovarian
[14] = test system: U251 CNS
[15] = test system: SK-OV-3 ovarian
[16] = test system: K-562 leukemia
[17] = test system: SNB-19 CNS
[18] = test system: NCI-H522 lung
[19] = test system: BT-549 breast
[20] = test system: SK-MEL-28 melanoma
[21] = test system: TK-10 renal
[22] = test system: A549 NSCLC
[23] = test system: MALME-3M melanoma
[24] = test system: HCT-15 colon
[25] = test system: HOP-62 NSCLC
[26] = test system: NCI/ADR-RES ovarian
[27] = test system: MCF7 breast
[28] = test system: SR leukemia
[29] = test system: MOLT-4 leukemia
[30] = test system: CAKI-1 renal
[31] = test system: SW-620 colon
[32] = test system: ACHN renal
[33] = test system: KM12 colon
[34] = test system: A498 renal
[35] = test system: PC-3 prostate
[36] = test system: OVCAR-8 ovarian
[37] = test system: SF-539 CNS
[38] = test system: RPMI-8226 leukemia
[39] = test system: OVCAR-5 ovarian
[40] = test system: UACC-257 melanoma
[41] = test system: SK-MEL-5 melanoma
[42] = test system: SN12C renal
[43] = test system: UO-31 renal
[44] = test system: SNB-75 CNS
[45] = test system: COLO 205 colon
[46] = test system: DU-145 prostate
[47] = test system: HT29 colon
[48] = test system: NCI-H23 lung
[49] = test system: NCI-H460 lung
[50] = test system: HS 578T breast
[51] = test system: HOP-92 NSCLC
[52] = test system: T-47D breast

SMILES: O=C(/C=C/c1cccs1)c1ccc(Cl)cc1Cl
- GI50 [1]: 19.4 µM
- TGI [1]: 38.4 µM
- GI50 [2]: 19.1 µM
- TGI [2]: 39 µM
- GI50 [3]: 19.2 µM
- TGI [3]: 34.8 µM
- GI50 [4]: 16.6 µM
- TGI [4]: 33.9 µM
- GI50 [5]: 32.1 µM
- TGI [5]: 97.1 µM
- GI50 [6]: 18.6 µM
- TGI [6]: 36.7 µM
- GI50 [7]: 14 µM
- TGI [7]: 30.8 µM
- GI50 [8]: 13.4 µM
- TGI [8]: 26.4 µM
- GI50 [9]: 14.3 µM
- TGI [9]: 28.1 µM
- GI50 [10]: 19.8 µM
- TGI [10]: 40.5 µM
- GI50 [11]: 17.7 µM
- TGI [11]: 35.2 µM
- GI50 [12]: 17.5 µM
- TGI [12]: 35 µM
- GI50 [13]: 19 µM
- TGI [13]: 36.4 µM
- GI50 [14]: 14.6 µM
- TGI [14]: 28.1 µM
- GI50 [15]: 25.5 µM
- TGI [15]: 55.3 µM
- GI50 [16]: 19.1 µM
- TGI [16]: 56.4 µM
- GI50 [17]: 24 µM
- TGI [17]: 64.2 µM
- GI50 [18]: 17.4 µM
- TGI [18]: 36.5 µM
- GI50 [19]: 19.3 µM
- TGI [19]: 39.9 µM
- GI50 [20]: 22.4 µM
- TGI [20]: 52.7 µM
- GI50 [21]: 25.3 µM
- TGI [21]: 61.1 µM
- GI50 [22]: 17.3 µM
- TGI [22]: 36.4 µM
- GI50 [23]: 1040 nM
- TGI [23]: 19.8 µM
- GI50 [24]: 14.7 µM
- TGI [24]: 32.4 µM
- GI50 [25]: 19.4 µM
- TGI [25]: 37.7 µM
- GI50 [26]: 31.4 µM
- TGI [26]: > 100 µM
- GI50 [27]: 18.4 µM
- TGI [27]: 51.6 µM
- GI50 [28]: 15 µM
- TGI [28]: 77.3 µM
- GI50 [29]: 18.8 µM
- TGI [29]: 51.9 µM
- GI50 [30]: 20.9 µM
- TGI [30]: 43.1 µM
- GI50 [31]: 18.8 µM
- TGI [31]: 37.1 µM
- GI50 [32]: 17.4 µM
- TGI [32]: 31.3 µM
- GI50 [33]: 19.1 µM
- TGI [33]: 40 µM
- GI50 [34]: 17.9 µM
- TGI [34]: 32.7 µM
- GI50 [35]: 33.2 µM
- TGI [35]: > 100 µM
- GI50 [36]: 19.4 µM
- TGI [36]: 48.3 µM
- GI50 [37]: 19.8 µM
- TGI [37]: 38.6 µM
- GI50 [38]: 27.7 µM
- TGI [38]: > 100 µM
- GI50 [39]: 20.1 µM
- TGI [39]: 39 µM
- GI50 [40]: 16.6 µM
- TGI [40]: 31.9 µM
- GI50 [41]: 15 µM
- TGI [41]: 28.8 µM
- GI50 [42]: 16.4 µM
- TGI [42]: 31.2 µM
- GI50 [43]: 18.5 µM
- TGI [43]: 34.2 µM
- GI50 [44]: 18.1 µM
- TGI [44]: 35.9 µM
- GI50 [45]: 27.1 µM
- TGI [45]: 88.9 µM
- GI50 [46]: 20 µM
- TGI [46]: 43.7 µM
- GI50 [47]: 28.1 µM
- TGI [47]: > 100 µM
- GI50 [48]: 17.1 µM
- TGI [48]: 33.6 µM
- GI50 [49]: 18 µM
- TGI [49]: 37.1 µM
- GI50 [50]: 24.5 µM
- TGI [50]: 55.9 µM
- GI50 [51]: 23.8 µM
- TGI [51]: 61.4 µM
- GI50 [52]: 28.6 µM
- TGI [52]: > 100 µM
